Experiment: Compound was tested in vitro for binding affinity for 5-hydroxytryptamine 1C receptor

Ki | Compound
200 nM | NC[C@@H]1O[C@H](c2ccccc2)Cc2c1ccc(Br)c2O
58 nM | Cc1ccc2c(c1O)C[C@@H](C1CCCCC1)O[C@H]2CN

— BindingDB's records for doi:10.1021/jm00114a002 (Abbott Laboratories, 1991)
